From ChEMBL document CHEMBL3632485 (Eur J Med Chem, 2015) come the findings set out here.

By Ki is commonly meant a measure of affinity in units of concentration, obtained from inhibition or displacement.

For one experiment, the target named is Carbonic anhydrase 9 (Homo sapiens, UniProt Q16790).
Another experiment addresses Carbonic anhydrase 12 (Homo sapiens, UniProt O43570). In words: Inhibition of human recombinant carbonic anhydrase 12 expressed in Escherichia coli preincubated for 6 hrs by stopped flow CO2 hydrase assay.
A further experiment concerns the target Carbonic anhydrase 1 (Homo sapiens, UniProt P00915). Nature of the experiment: Inhibition of human recombinant carbonic anhydrase 1 expressed in Escherichia coli preincubated for 6 hrs by stopped flow CO2 hydrase assay.
A further experiment concerns the target Carbonic anhydrase 2 (Homo sapiens, UniProt P00918). In words: Inhibition of human recombinant carbonic anhydrase 2 expressed in Escherichia coli preincubated for 6 hrs by stopped flow CO2 hydrase assay.

Sequence of Carbonic anhydrase 12 (O43570 whole entry): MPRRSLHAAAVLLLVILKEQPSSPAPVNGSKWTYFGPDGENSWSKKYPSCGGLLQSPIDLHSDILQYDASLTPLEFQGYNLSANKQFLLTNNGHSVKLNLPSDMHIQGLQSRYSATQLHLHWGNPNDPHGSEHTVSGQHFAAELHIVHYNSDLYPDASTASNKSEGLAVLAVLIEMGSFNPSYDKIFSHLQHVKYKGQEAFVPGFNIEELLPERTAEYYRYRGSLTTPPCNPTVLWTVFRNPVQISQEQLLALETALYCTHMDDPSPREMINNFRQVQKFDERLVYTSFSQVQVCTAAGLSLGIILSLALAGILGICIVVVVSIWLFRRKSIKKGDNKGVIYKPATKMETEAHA
Sequence of Carbonic anhydrase 1 (P00915 whole entry): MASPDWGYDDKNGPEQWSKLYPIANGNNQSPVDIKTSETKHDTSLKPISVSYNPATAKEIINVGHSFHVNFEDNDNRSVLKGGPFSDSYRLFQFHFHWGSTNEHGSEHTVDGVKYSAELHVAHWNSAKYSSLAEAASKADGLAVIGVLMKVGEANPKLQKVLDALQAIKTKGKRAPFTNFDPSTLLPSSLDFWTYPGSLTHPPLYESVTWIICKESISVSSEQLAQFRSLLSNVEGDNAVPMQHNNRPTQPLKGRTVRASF
Description for Carbonic anhydrase 9: Inhibition of human recombinant carbonic anhydrase 9 expressed in Escherichia coli preincubated for 6 hrs by stopped flow CO2 hydrase assay

As to `NS(=O)(=O)c1ccc(-n2nc(C(=O)N/N=C3\C(=O)Nc4ccccc43)cc2-c2ccccc2)cc1`, at Carbonic anhydrase 9, the Ki was 8.8 nM.

With `NS(=O)(=O)c1ccc(-n2nc(C(=O)N/N=C3\C(=O)Nc4ccc(Cl)cc43)cc2-c2ccccc2)cc1`, affinity at Carbonic anhydrase 9 was put at a Ki of 7.4 nM.

Consider `NS(=O)(=O)c1ccc(-n2nc(C(=O)N/N=C3\C(=O)Nc4ccc(Br)cc43)cc2-c2ccccc2)cc1`, for which the Ki on Carbonic anhydrase 9 is 20 nM.

Consider `Cc1ccc2c(c1)/C(=N/NC(=O)c1cc(-c3ccccc3)n(-c3ccc(S(N)(=O)=O)cc3)n1)C(=O)N2`, for which the inhibition constant Ki on Carbonic anhydrase 9 was determined as 4.7 nM.

In turn, `NS(=O)(=O)c1ccc(-n2ncc(C(=O)N/N=C3\C(=O)Nc4ccccc43)c2-c2ccccc2)cc1` registered an inhibition constant Ki on Carbonic anhydrase 9 of 52.9 nM.

For the compound `NS(=O)(=O)c1ccc(-n2ncc(C(=O)N/N=C3\C(=O)Nc4ccc(Cl)cc43)c2-c2ccccc2)cc1`, the Ki on Carbonic anhydrase 9 amounted to 9.7 nM.

In the case of `NS(=O)(=O)c1ccc(-n2ncc(C(=O)N/N=C3\C(=O)Nc4ccc(Br)cc43)c2-c2ccccc2)cc1`, at Carbonic anhydrase 9, the affinity corresponds to a Ki of 7.8 nM.

`NS(=O)(=O)c1ccc(-n2ncc(C(=O)N/N=C3\C(=O)Nc4ccc([N+](=O)[O-])cc43)c2-c2ccccc2)cc1` returned a Ki on Carbonic anhydrase 9 of 15.7 nM.

Take `NS(=O)(=O)c1ccc(-n2ncc(C(=O)N/N=C3\C(=O)N(Cc4ccccc4)c4ccccc43)c2-c2ccccc2)cc1`: the Ki on Carbonic anhydrase 12 was found to be 6.5 nM.

The compound `Nc1c(C(=O)N/N=C2\C(=O)Nc3ccccc32)cnn1-c1ccc(S(N)(=O)=O)cc1` had an inhibition constant (Ki) at Carbonic anhydrase 9 of 2.8 nM.

At Carbonic anhydrase 9, `Nc1c(C(=O)N/N=C2\C(=O)Nc3ccc(Cl)cc32)cnn1-c1ccc(S(N)(=O)=O)cc1` yielded a Ki of 2.5 nM.

Turning to `Nc1c(C(=O)N/N=C2\C(=O)Nc3ccc(Br)cc32)cnn1-c1ccc(S(N)(=O)=O)cc1`, the Ki at Carbonic anhydrase 9 is 9.4 nM.

On to `COc1ccc2c(c1)/C(=N/NC(=O)c1cnn(-c3ccc(S(N)(=O)=O)cc3)c1N)C(=O)N2`, for which the inhibition constant Ki at Carbonic anhydrase 9 is 3.5 nM.

`Nc1c(C(=O)N/N=C2\C(=O)Nc3ccc([N+](=O)[O-])cc32)cnn1-c1ccc(S(N)(=O)=O)cc1`: the Ki was determined as 70.4 nM at Carbonic anhydrase 1, 7.4 nM at Carbonic anhydrase 9, 5.4 nM at Carbonic anhydrase 12 and 23.1 nM at Carbonic anhydrase 2.
